Where two headings read alike, the source gives them in different places.
Experiments:
[1] = test system: Phosphorylation of GSK3β(S9); experiment: p70 S6K/AKT In Vivo Target Inhibition, U87MG xenograft, pGSK3β; set-up: species or system athymic nude mice; details: Mus musculus, U-87 MG, IV Dose 12.5 mpk, U87MG tumors, read-out: p(S9)GSK 3β - % inhibition
Description: (§1) U87MG human glioblastoma cells (5×106) are subcutaneously implanted into the flank of athymic nude mice in 0.2 mL of matrigel. Two weeks post-implantation, mice are dosed orally or parenterally according to a time course, single dose/single time point, or dose response protocol for the determination of TMED50 (threshold minimum effective dose). Tumors are flash frozen at harvest and blood is collected for the determination of parent compound plasma exposure and the calculation of TMEC50 (threshold minimum effective concentration) in the case of dose response studies. Tumors or tissues are pulverized in liquid N2 and lysed in 400 μL of XY Lysis Buffer (10 μg/mL Leupeptin, 10 μg/mL Trypsin-Chymotrypsin Inhibitor, 10 μg/mL Tosyl phenyl-alanyl chloromethyl ketone, 10 μg/mL Aprotinin, 60 mM Beta-Glycerol Phosphate, 1% Triton X100, 25 mM Tris pH 7.5, 2.5 mM Pyrophosphate, 150 mM NaCl, 2 mM p-tosyl-L-arginine methyl ester, 15 mM para-nitrophenyl phosphate, 5 mM Benzamidine, 1 mM Na Vanadate, 10 mM NaF, 50 μg/mL phenyl-methane sulfonyl fluoride, 1 mM 1,4-Dithiothreitol (DTT), 15 mM EDTA pH 8.0, 5 mM EGTA pH 8.0, 1 μM Microcystin, 1 μM Okadaic Acid, and 1 Roche Complete protease inhibitor mini-tablet per 10 mL) using Lysing Matrix D tubes (MP Biomedicals, Solon, Ohio, cat#6913-500) and a BIO101 Thermo Savant Fast Prep FP12. Lysates are aliquoted and either assayed immediately or stored at −80° C. for later testing. In Vivo Target Inhibition of p70 S6K and AKT is measured utilizing Meso Scale Discovery (Gaithersburg, Md.) ELISA technology to assess effects on phosphorylation of the serine 240/244 site of the downstream effector S6RP. Phosphorylation of p70 S6K(T389), AKT(5473) and GSK3β(S9) is also assessed using this technology in a multiplex format. In summary, 20 μg of lysate is added to carbon electrode containing 96-well plates pre-spotted with the appropriate capture antibodies. The protein of interest is probed using a ruthenium labeled detection antibody. Upon the passage of current over the electrode in the presence of read buffer containing the co-reactant TPA, electro-chemiluminescence results in the generation of light which is quantified and recorded using the MSD Sector 6000 instrument. For each study, percent inhibitions are calculated relative to the vehicle control group and ANOVA analysis is performed using the JMP software package for the determination of statistical significance.

[2] = test system: phosphorylation of the serine 240/244 site of S6RP; experiment: p70 S6K/AKT In Vivo Target Inhibition, U87MG xenograft, pS6; set-up: species or system athymic nude mice; details: Mus musculus, U-87 MG, IV Dose 12.5 mpk, U87MG tumors, read-out: p(S240) S6 - % inhibition
Description: as §1

[3] = test system: phosphorylated GSK3β serine 9 (pGSK3β); experiment: AlphaScreen SureFire detection of pGSK3β in U87MG cells; format: cell-based; details: Homo sapiens, U-87 MG, 1 hour
Description: The effect of compounds on the formation of endogenous phosphorylated S6 ribosomal protein serine 240/244 (pS6) and phosphorylated GSK3β serine 9 (pGSK3β) are measured using the AlphaScreen SureFire® for either pS6 (TGR Biosciences, TGRS6P2S10K) or pGSK3β(TGRGBS10K). This is a homogeneous assay format using immuno-sandwich capture of the phosphorylated analyte followed by detection using antibody-coated Alphascreen beads to generate an amplified signal.
U87MG cells are maintained in U87MG growth medium consisting of DMEM supplemented with 10% Fetal bovine serum (FBS), 1% Nonessential amino acids and 1% sodium pyruvate. For the assay, cells are harvested by standard procedures and then counted using Vi-Cell. Cells (50,000/well) are plated in 100 μL of U87MG growth medium into Costar #3596 96 well plates. […]
On the day of the assay, cells are treated with 20 μL/well compound diluted in media containing 6% DMSO. […] The plate is sealed with foil, incubated at RT for 4 hours with gentle shaking and then read on Perkin Elmer EnVision equipped with a TurboModule using standard AlphaScreen® settings (Ex680nm and Em520-620nm). The percent inhibition determined from controls on each plate and ten-point compound concentration data are then fit to a four-parameter logistic equation using ACTIVITYBASE 4.0 (Assay Guidance Manual Version 5.0, 2008, Eli Lilly and Company and NIH Chemical Genomics Center).

- IC50 [3]: 331 nM
Structure (SMILES): CN(C)CCn1cc(-c2ccc(F)c(C(F)(F)F)c2)nc1C1CCN(c2ncnc3c2C(C)(C)C(=O)N3)CC1 [Example 31]
- inhibition at 12.5 mg/kg ([1]; 1 hr post IV dose): 48.4%
- inhibition at 12.5 mg/kg ([1]; 2 hr post IV dose): 12.6%
- inhibition at 12.5 mg/kg ([1]; 4 hr post IV dose): 20.5%
- inhibition at 12.5 mg/kg ([1]; 6 hr post IV dose): 51.7%
- inhibition at 12.5 mg/kg ([1]; 8 hr post IV dose): 20.1%
- inhibition at 12.5 mg/kg ([1]; 24 hr post IV dose): 6%
- inhibition at 12.5 mg/kg ([2]; 1 hr post IV dose): 79.2%
- inhibition at 12.5 mg/kg ([2]; 2 hr post IV dose): 87.6%
- inhibition at 12.5 mg/kg ([2]; 4 hr post IV dose): 94.9%
- inhibition at 12.5 mg/kg ([2]; 6 hr post IV dose): 91.7%
- inhibition at 12.5 mg/kg ([2]; 8 hr post IV dose): 96.4%
- inhibition at 12.5 mg/kg ([2]; 24 hr post IV dose): 45%

Source: US8148387B2, “AKT and P70 S6 kinase inhibitors” (Eli Lilly and Company, priority 2008, dated 2012)
